Results from patent publication US6133287A, “Piperidine-indole compounds having 5-HT6 affinity” (Allelix Biopharmaceuticals Inc., priority 1998, dated 2000).
Counter-ions that a name gives are not always drawn. Like-named read-outs stand apart in the source and are kept apart here.

Assays:
human 5-HT6 receptor [1] = molecular target: T1, human 5-HT6 receptor (Homo sapiens, UniProt P50406); test: Effect of compounds on the cAMP response of human 5-HT6 receptors (stably transfected HEK293 cells, cAMP EIA); assay type: cell-based; design: expressed in transfected cells; host or cells: HEK293
T1 sequence (P50406 whole entry): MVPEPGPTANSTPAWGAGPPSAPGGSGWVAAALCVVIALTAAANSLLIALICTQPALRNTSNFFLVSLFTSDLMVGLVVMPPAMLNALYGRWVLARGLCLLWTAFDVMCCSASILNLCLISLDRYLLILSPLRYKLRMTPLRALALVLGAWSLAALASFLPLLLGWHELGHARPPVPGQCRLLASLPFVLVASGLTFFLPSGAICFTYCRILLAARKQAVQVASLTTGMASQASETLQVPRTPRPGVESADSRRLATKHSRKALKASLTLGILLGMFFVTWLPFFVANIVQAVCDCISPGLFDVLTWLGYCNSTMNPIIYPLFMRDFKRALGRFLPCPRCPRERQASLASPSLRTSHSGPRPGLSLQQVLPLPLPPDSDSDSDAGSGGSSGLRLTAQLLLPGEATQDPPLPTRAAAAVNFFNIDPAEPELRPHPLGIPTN
Description: The antagonist (or agonist ) property of compounds for human 5-HT6 receptors was determined by testing their effect on cAMP accumulation in stably transfected HEK293 cells.
Human 5-HT6 receptors were cloned and stably expressed in HEK293 cells. These cells were plated in 6 well plates in DMEM/F12 media with 10% fetal calf serum (FCS) and 500 μg/mL G418 and incubated at 37° C. in a CO2 incubator. The cells were allowed to grow to about 70% confluence before initiation of the experiment.
On the day of the experiment, the culture media was removed, and the cells were washed once with serum free medium (SFM). Two mL of SFM+IBMX media was added and incubated at 37° C. for 10 min. The media were removed and fresh SFM+IBMX media containing various compounds, and 1 μM serotonin (as antagonist) were added to the appropriate wells and incubated for 30 min. […]
cAMP content was determined by EIA (enzyme-immunoassay) using the Amersham Biotrak cAMP EIA kit (Amersham RPN 225). […] Briefly, cAMP is determined by the competition between unlabeled cAMP and a fixed quantity of peroxidase-labelled cAMP for the binding sites on anti-cAMP antibody. […] The reaction is stopped by the addition of 100 μL 1.0 M sulfuric acid and the resultant color read by a microtitre plate spectrophotometer at 450 nM within 30 minutes. […]

human 5-HT2c receptor = molecular target: T2, human 5-HT2c receptor (Homo sapiens, UniProt P28335); test: Selectivity of binding to the human 5-HT6 receptor relative to the human 5-HT2c receptor; conditions: 5-HT6 vs 5-HT2c
T2 sequence (P28335 33-458): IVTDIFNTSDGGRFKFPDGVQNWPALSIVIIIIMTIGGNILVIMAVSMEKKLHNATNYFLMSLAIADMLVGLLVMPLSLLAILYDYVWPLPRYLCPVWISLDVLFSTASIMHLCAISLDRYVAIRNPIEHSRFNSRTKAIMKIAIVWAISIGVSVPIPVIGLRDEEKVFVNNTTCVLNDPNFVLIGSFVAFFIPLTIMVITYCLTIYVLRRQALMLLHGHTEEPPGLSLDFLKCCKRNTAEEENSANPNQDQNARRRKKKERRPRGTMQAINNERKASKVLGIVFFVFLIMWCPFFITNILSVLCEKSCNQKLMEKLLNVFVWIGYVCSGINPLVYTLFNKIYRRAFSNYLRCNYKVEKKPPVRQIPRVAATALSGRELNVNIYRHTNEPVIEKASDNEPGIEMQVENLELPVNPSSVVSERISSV
Description: (§1) All of the compounds of the invention were evaluated using cell types receptive specifically to the 5-HT6 receptor (for cloning and characterization of the human 5-HT6 receptor see Kohen, et al. J. Neurochemistry, 66, 1996: 47-56). […] After a 60 minute incubation at 37° C., the incubation was terminated by vacuum filtration. The filters were washed with buffer and the filters were counted for radioactivity using liquid scintillation spectrometry. The affinity of the test compound for the 5-HT6 receptor was determined by computer-assisted analysis of the data and determining the amount of the compound necessary to inhibit 50% of the binding of the radioligand to the receptor. Concentrations ranging from 10^-11 M to 10^-5 M of the test compound were evaluated.

human 5-HT7 receptor = human 5-HT7 receptor (Homo sapiens, UniProt P34969); test: Selectivity of binding to the human 5-HT6 receptor relative to the human 5-HT7 receptor; conditions: 5-HT6 vs 5-HT7
Sequence of human 5-HT7 receptor (P34969 whole entry): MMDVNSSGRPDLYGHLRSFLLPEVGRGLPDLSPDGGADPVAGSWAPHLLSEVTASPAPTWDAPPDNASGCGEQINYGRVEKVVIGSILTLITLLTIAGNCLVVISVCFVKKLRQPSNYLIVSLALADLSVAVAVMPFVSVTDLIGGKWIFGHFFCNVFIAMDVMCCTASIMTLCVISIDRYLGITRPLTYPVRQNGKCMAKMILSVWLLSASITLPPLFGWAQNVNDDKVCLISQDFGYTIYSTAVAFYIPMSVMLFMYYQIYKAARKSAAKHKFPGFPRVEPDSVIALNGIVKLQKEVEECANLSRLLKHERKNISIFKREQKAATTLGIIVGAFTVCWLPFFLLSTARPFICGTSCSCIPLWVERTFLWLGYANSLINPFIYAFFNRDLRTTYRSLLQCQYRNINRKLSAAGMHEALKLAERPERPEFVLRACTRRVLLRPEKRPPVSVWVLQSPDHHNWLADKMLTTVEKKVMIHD

human 5-HT6 receptor [2] = molecular target: T1, human 5-HT6 receptor; test: Binding affinity for the 5-HT6 receptor (3H-LSD radioligand binding, membranes of cells expressing the receptor); design: expressed in transfected cells; conditions: 60 minute incubation at 37° C.
Description: as §1

CN1CC=C(c2cn(S(=O)(=O)c3ccc(F)cc3)c3ccc(F)cc23)CC1 [6 cc]
EC50 (human 5-HT6 receptor [1]; read-out: EC50, concentration causing 50% inhibition of the serotonin-stimulated cAMP response, 1 μM serotonin, 30 min): 10 nM

CN1CCC(c2c[nH]c3cc(Cl)ccc23)CC1 [Example 5b, 6-Chloro-3-(1-methyl-4-piperidinyl)-1H-indole]
EC50 (human 5-HT6 receptor [1]; 1 μM serotonin, 30 min, read-out: EC50, concentration causing 50% inhibition of the serotonin-stimulated cAMP response): 1900 nM

Cc1ccc(S(=O)(=O)n2cc(C3=CCN(C)CC3)c3cc(F)ccc32)cc1 [Example 6b, 5-Fluoro-1-(4-methylphenylsulfonyl)-3-(1-methyl-1,2,3,6-tetrahydro-4-pyridinyl)indole]
greater affinity for human 5-HT6 receptor relative to human 5-HT2c receptor (human 5-HT2c receptor): ≥ 60 fold
greater affinity for human 5-HT6 receptor relative to human 5-HT7 receptor (human 5-HT7 receptor): ≥ 60 fold

CN1CC=C(c2cn(C(=O)c3ccccc3Cl)c3ccc(F)cc23)CC1 [Example 6c, 1-(2-Chlorobenzoyl)-5-fluoro-3-(1-methyl-1,2,3,6-tetrahydro-4-pyridinyl)indole]
Ki (human 5-HT6 receptor [2]; Ki): ≤ 5 nM

CN1CC=C(c2cn(C(=O)c3c(Cl)cccc3Cl)c3ccc(F)cc23)CC1 [Example 6f, 1-(2,6-Dichlorobenzoyl)-5-fluoro-3-(1-methyl-1,2,3,6-tetrahydro-4-pyridinyl)indole]
Ki (human 5-HT6 receptor [2]; Ki): ≤ 5 nM

CN1CC=C(c2cn(C(=O)c3ccccc3)c3ccc(Br)cc23)CC1 [Example 6g, 1-Benzoyl-5-bromo-3-(1-methyl-1,2,3,6-tetrahydro-4-pyridinyl)indole]
Ki (human 5-HT6 receptor [2]; Ki): ≤ 50 nM
greater affinity for human 5-HT6 receptor relative to human 5-HT2c receptor (human 5-HT2c receptor): ≥ 60 fold
greater affinity for human 5-HT6 receptor relative to human 5-HT7 receptor (human 5-HT7 receptor): ≥ 60 fold

CN1CC=C(c2cn(C(=O)c3ccccc3Cl)c3ccc(OC4CCCCC4)cc23)CC1 [Example 7aaa, 1-(2-Chlorobenzoyl)-5-cyclohexyloxy-3-(1-methyl-1,2,3,6-tetrahydro-4-pyridinyl) indole]
Ki (human 5-HT6 receptor [2]; Ki): ≤ 5 nM

CN1CC=C(c2cn(S(=O)(=O)c3ccccc3)c3c(F)cc(F)cc23)CC1 [Example 7aj, 5,7-Difluoro-3-(1-methyl-1,2,3,6-tetrahydro-4-pyridinyl)-1-phenylsulfonylindole]
Ki (human 5-HT6 receptor [2]; Ki): ≤ 5 nM

CN1CC=C(c2cn(S(=O)(=O)c3ccc(Br)cc3)c3c(F)cc(F)cc23)CC1 [Example 7am, 1-(4-Bromophenylsulfonyl)-5,7-difluoro-3-(1-methyl-1,2,3,6-tetrahydro-4-pyridinyl)indole]
Ki (human 5-HT6 receptor [2]; Ki): ≤ 5 nM

CN1CC=C(c2cn(S(=O)(=O)c3ccc4ccccc4c3)c3c(F)cc(F)cc23)CC1 [Example 7ap, 5,7-Difluoro-3-(1-methyl-1,2,3,6-tetrahydro-4-pyridinyl)-1-(2-naphthylsulfonyl)indole]
Ki (human 5-HT6 receptor [2]; Ki): ≤ 5 nM

CN1CC=C(c2cn(C(=O)c3ccc(F)cc3)c3c(F)cc(F)cc23)CC1 [Example 7ar, 5,7-Difluoro-1-(4-fluorobenzoyl)-3-(1-methyl-1,2,3,6-tetrahydro-4-pyridinyl)indole]
Ki (human 5-HT6 receptor [2]; Ki): ≤ 5 nM

CN1CC=C(c2cn(C(=O)c3cc(Cl)ccc3Cl)c3c(F)cc(F)cc23)CC1 [Example 7as, 1-(2,5-Dichlorobenzoyl)-5,7-difluoro-3-(1-methyl-1,2,3,6-tetrahydro-4-pyridinyl)indole]
Ki (human 5-HT6 receptor [2]; Ki): ≤ 50 nM

CN1CC=C(c2cn(S(=O)(=O)c3ccccc3Br)c3ccc(F)cc23)CC1 [Example 7bb, 1-(2-Bromophenylsulfonyl)-5-fluoro-3-(1-methyl-1,2,3,6-tetrahydro-4-pyridinyl)indole]
greater affinity for human 5-HT6 receptor relative to human 5-HT2c receptor (human 5-HT2c receptor): ≥ 60 fold
greater affinity for human 5-HT6 receptor relative to human 5-HT7 receptor (human 5-HT7 receptor): ≥ 60 fold

CN1CC=C(c2cn(S(=O)(=O)c3ccc(F)cc3)c3ccc(F)cc23)CC1 [Example 7cc, 1-(4-Fluorophenylsulfonyl)-5-fluoro-3-(1-methyl-1,2,3,6-tetrahydro-4-pyridinyl)indole]
Ki (human 5-HT6 receptor [2]; Ki): ≤ 5 nM

CN1CC=C(c2cn(S(=O)(=O)c3ccc(Cl)cc3)c3ccc(F)cc23)CC1 [Example 7dd, 1-(4-Chlorophenylsulfonyl)-5-fluoro-3-(1-methyl-1,2,3,6-tetrahydro-4-pyridinyl)indole]
greater affinity for human 5-HT6 receptor relative to human 5-HT2c receptor (human 5-HT2c receptor): ≥ 60 fold
greater affinity for human 5-HT6 receptor relative to human 5-HT7 receptor (human 5-HT7 receptor): ≥ 60 fold

CN1CC=C(c2cn(S(=O)(=O)c3cccc4ccccc34)c3ccc(F)cc23)CC1 [Example 7gg, 5-Fluoro-3-(1-methyl-1,2,3,6-tetrahydro-4-pyridinyl)-1-(1-naphthylsulfonyl)indole]
Ki (human 5-HT6 receptor [2]; Ki): ≤ 50 nM

CN1CC=C(c2cn(S(=O)(=O)c3ccc4ccccc4c3)c3ccc(F)cc23)CC1 [Example 7hh, 5-Fluoro-3-(1-methyl-1,2,3,6-tetrahydro-4-pyridinyl)-1-(2-naphthylsulfonyl)indole]
greater affinity for human 5-HT6 receptor relative to human 5-HT2c receptor (human 5-HT2c receptor): ≥ 60 fold
greater affinity for human 5-HT6 receptor relative to human 5-HT7 receptor (human 5-HT7 receptor): ≥ 60 fold

Cc1ccc(S(=O)(=O)n2cc(C3=CCN(C)CC3)c3cc(OC4CCCCC4)ccc32)cc1 [Example 7i, 5-Cyclohexyloxy-1-(4-methylphenylsulfonyl)-3-(1-methyl-1,2,3,6-tetrahydro-4-pyridinyl)indole]
greater affinity for human 5-HT6 receptor relative to human 5-HT2c receptor (human 5-HT2c receptor): ≥ 60 fold
greater affinity for human 5-HT6 receptor relative to human 5-HT7 receptor (human 5-HT7 receptor): ≥ 60 fold

CN1CC=C(c2cn(S(=O)(=O)c3ccccc3)c3ccc(F)cc23)CC1 [Example 7ii, 5-Fluoro-3-(1-methyl-1,2,3,6-tetrahydro-4-pyridinyl)-1-phenylsulfonylindole]
Ki (human 5-HT6 receptor [2]; Ki): ≤ 5 nM

CN1CC=C(c2cn(S(=O)(=O)c3ccccc3)c3cc(Br)ccc23)CC1 [Example 7j, 6-Bromo-3-(1-methyl-1,2,3,6-tetrahydro-4-pyridinyl)-1-phenylsulfonylindole]
Ki (human 5-HT6 receptor [2]; Ki): ≤ 50 nM

CN1CC=C(c2cn(S(=O)(=O)c3ccccc3)c3ccc(Cl)cc23)CC1 [Example 7jj, 5-Chloro-3-(1-methyl-1,2,3,6-tetrahydro-4-pyridinyl)-1-phenylsulfonylindole]
Ki (human 5-HT6 receptor [2]; Ki): ≤ 5 nM

CN1CC=C(c2cn(C(=O)c3ccccc3)c3ccc(Cl)cc23)CC1 [Example 7jjj, 1-Benzoyl-5-chloro-3-(1-methyl-1,2,3,6-tetrahydro-4-pyridinyl)indole hydrochloride]
Ki (human 5-HT6 receptor [2]; Ki): ≤ 50 nM

CN1CC=C(c2cn(S(=O)(=O)c3ccccc3)c3ccc(OC4CCCCC4)cc23)CC1 [Example 7m, 5-Cyclohexyloxy-3-(1-methyl-1,2,3,6-tetrahydro-4-pyridinyl)-1-phenylsulfonylindole]
Ki (human 5-HT6 receptor [2]; Ki): ≤ 50 nM

CN1CC=C(c2cn(C(=O)c3c(Cl)cccc3Cl)c3ccc(C(F)(F)F)cc23)CC1 [Example 7qqq, 1-(2,6-Dichlorobenzoyl)-3-(1-methyl-1,2,3,6-tetrahydro-4-pyridinyl)-5-trifluoromethyl-indole]
Ki (human 5-HT6 receptor [2]; Ki): ≤ 50 nM

CN1CC=C(c2cn(S(=O)(=O)c3ccccc3)c3ccc(C(F)(F)F)cc23)CC1 [Example 7rr, 3-(1-Methyl-1,2,3,6-tetrahydro-4-pyridinyl)-1-phenylsulfonyl-5-trifluoromethylindole hydrochloride]
Ki (human 5-HT6 receptor [2]; Ki): ≤ 5 nM

CN1CCC(c2cn(S(=O)(=O)c3ccccc3)c3ccccc23)CC1 [Example 7uuu, 3-(1-Methyl-4-piperidinyl)-1-phenylsulfonylindole]
Ki (human 5-HT6 receptor [2]; read-out: Ki): ≤ 50 nM

COc1ccc(S(=O)(=O)n2cc(C3=CCN(C)CC3)c3cc(C(F)(F)F)ccc32)cc1 [Example 7vv, 1-(4-Methoxyphenylsulfonyl)-3-(1-methyl-1,2,3,6-tetrahydro-4-pyridinyl)-5-trifluoromethylindole hydrochloride]
Ki (human 5-HT6 receptor [2]; Ki): ≤ 50 nM
